Measured values reported in PubChem BioAssay AID1963969 (Molecular Pharmacology Branch, DTP, NCI, 2024).
Where “and” joins values, the source holds several entries; their conditions need not be identical. Equal values may be shown once.

Test system: 817829-284-R-J1-PDC multi-cell spheroid viability
Assay: Anticancer human tumor 817829-284-R-J1-PDC patient-derived colon adenocarcinoma cell line growth inhibition [PI3K]
Conditions: for viability, T/C: stronger effect = lower value
Excerpt: Combinatorial screen of targeted agents with the PI3K inhibitors inavolisib, alpelisib, duvelisib, and copanlisib in multi-cell type tumor spheroids
A high-throughput screen of multi-cell type tumor spheroids was designed to identify active combinations of targeted small molecules and PI3K pathway inhibitors. Complex spheroids include a stromal component modeled by human endothelial cells (HUVEC) and fibroblasts modeled by human mesenchymal stem cells (MSCs). The concentration ranges selected for each drug and investigational agent were based upon clinically achievable concentrations if the clinical Cmax of the agent was known.
Compounds. The drugs and investigational agents: inavolisib (NSC800729), alpelisib (NSC765974), duvelisib (NSC772469), copanlisib (NSC816437), ipatasertib (NSC767898), afuresertib (NSC778305), talazoparib (NSC767125), sapanisertib (NSC764658), selumetinib (NSC741078), tovorafenib (DAY101, NSC766906), vemurafenib (NSC761431), ravoxertinib (NSC781343), sotorasib (NSC818433), MRTX1133 (NSC 836407), abemaciclib (NSC 768073), palbociclib (NSC758247), venetoclax (NSC 766270), SY5609 (NSC837396), enzalutamide (NSC755605), and darolutamide (NSC825331), were obtained from the National Cancer Institute (NCI) Developmental Therapeutics Program Chemical Repository. The FDA-approved anticancer drug set is available from the NCI Developmental Therapeutics Program. […] The stock solutions were prepared in dimethyl sulfoxide (DMSO, Sigma-Aldrich, St. Louis, MO, cat. D2650) at 800-fold the tested concentration and stored at -70 degrees C prior to their use. All drugs and investigational agents were tested over a range starting from a high concentration at or near the clinical Cmax and decreasing in half-log increments. If the clinical Cmax for an agent had not been determined, the highest concentration tested was 10 microM.
Cell Culture. All cells were maintained in an incubator at 37 degrees C and 5% CO2 with 95% humidity. The PDC lines were cultured according to standard operating procedures established by the NCI PDMR (https://pdmr.cancer.gov/sops/default.htm). All PDCs were thawed and cultured in Matrigel-coated flasks prepared with a working solution of 1X Ham's F-12 nutrient mix, without supplementation (Invitrogen, Waltham, MA, cat. 11765054), 100 U/mL penicillin-streptomycin (Invitrogen, cat. 15140122), and 2.5% Matrigel (Corning Inc., Corning, NY, cat. 354248) for the first three passages. The 354836-022-R-J1-PDC, 475296-252-R-J1-PDC, and 997726-040-R-J2-PDC lines were cultured in 6A media, which includes advanced DMEM/F-12 (Thermo Fisher Scientific, cat. 12634028), 10 mM HEPES (Thermo Fisher Scientific, cat. 15630080), 1X GlutaMAX supplement (Thermo Fisher Scientific, cat. 35050061), 0.1 mg/mL primocin (InvivoGen, San Diego, CA, cat. ant-pm-2), 10% defined fetal bovine serum, heat inactivated (HyClone Laboratories Inc., Logan, UT, cat. SH30070.03HI), 50% L-WRN conditioned media (ATCC, cat. CRL-3276), 1.25 mM N-Acetyl-L-cysteine (Sigma-Aldrich, cat. A9165), 10 mM nicotinamide (Sigma-Aldrich, cat. N0636), 1X B-27 supplement (Thermo Fisher Scientific, cat. 17504044), 1X N-2 supplement (Thermo Fisher Scientific, cat. 17502048), and 10 microM Y-27632 dihydrochloride (Tocris Bioscience, Bristol, United Kingdom, cat. 1254). The 624824-186-R-J2-PDC line was cultured in 6C/Colon 1B media, which includes all 6A media components plus 50 ng/mL human EGF recombinant protein (Thermo Fisher Scientific, cat. PHG0311). […]

[1] = curve of first compound, second compound 0.0316 µM
[2] = curve of first compound, second compound 0.1 µM
[3] = curve of first compound, second compound 0.316 µM
[4] = curve of first compound, second compound 1 µM
[5] = curve of first compound, second compound 3.16 µM
[6] = curve of first compound, second compound 10 µM
[7] = second compound 0.0316 µM, first compound 0.0316 µM
[8] = second compound 0.0316 µM, first compound 0.1 µM
[9] = second compound 0.1 µM, first compound 0.0316 µM
[10] = second compound 0.1 µM, first compound 0.1 µM
[11] = second compound 0.316 µM, first compound 0.0316 µM
[12] = second compound 0.316 µM, first compound 0.1 µM
[13] = second compound 1 µM, first compound 0.0316 µM
[14] = second compound 1 µM, first compound 0.1 µM
[15] = second compound 3.16 µM, first compound 0.0316 µM
[16] = second compound 3.16 µM, first compound 0.1 µM
[17] = second compound 10 µM, first compound 0.0316 µM
[18] = second compound 10 µM, first compound 0.1 µM
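Further: spheroids exposed to agents for seven days before readout.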
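Wherever viability, T/C is given: percent of vehicle DMSO control viability which is 100%.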

Which results are given for `CC1(C)CCC(CN2CCN(c3ccc(C(=O)NS(=O)(=O)c4ccc(NCC5CCOCC5)c([N+](=O)[O-])c4)c(Oc4cnc5[nH]ccc5c4)c3)CC2)=C(c2ccc(Cl)cc2)C1`?
viability, T/C (compound 0.0316 µM): 66.2% and 63.1% and 99.8%; viability, T/C (compound 0.1 µM): 60.4% and 90.3% and 105%; viability, T/C (compound 0.316 µM): 60.5% and 85.7% and 66.8%; viability, T/C (compound 1 µM): 84.6% and 95.4% and 97.1%; viability, T/C (compound 3.16 µM): 98.1% and 98.5% and 56.7%; IC50 (curve of compound): > 10000 nM and 5630 nM and 3670 nM

Which IC50 [1] does the source give for `CC1(C)CCC(Nc2ncc(C(F)(F)F)c(-c3c[nH]c4c(P(C)(C)=O)c(C#N)ccc34)n2)CN1` (centres undefined) + Cc1nc(NC(=O)N2CCCC2C(N)=O)sc1-c1ccnc(C(C)(C)C(F)(F)F)c1 here?
The IC50 was less than 31.6 nM.

And the IC50 [2]?
Its IC50 is less than 31.6 nM.

What about the IC50 [3] of the same compound?
The IC50 was less than 31.6 nM.

And the IC50 [4]?
The IC50 was less than 31.6 nM.

And the IC50 [5]?
The IC50 was less than 31.6 nM.

And the IC50 [6]?
Its IC50 is less than 31.6 nM.

And the viability, T/C [7]?
Its viability, T/C is 30.4%.

What about the viability, T/C [8] of the same compound?
The viability, T/C was 24.9%.

What about the viability, T/C (second compound 0.0316 µM, first compound 0.316 µM) of the same compound?
Its viability, T/C is 26.7%.

And the viability, T/C (second compound 0.0316 µM, first compound 1 µM)?
The viability, T/C was 32.1%.

And the viability, T/C (second compound 0.0316 µM, first compound 3.16 µM)?
Its viability, T/C is 30.8%.

And the viability, T/C (second compound 0.0316 µM, first compound 10 µM)?
The viability, T/C was 1.2%.

And the viability, T/C [9]?
The viability, T/C was 27.2%.

What about the viability, T/C [10] of the same compound?
Its viability, T/C is 24.7%.

What about the viability, T/C (second compound 0.1 µM, first compound 0.316 µM) of the same compound?
The viability, T/C was 32.2%.

What about the viability, T/C (second compound 0.1 µM, first compound 1 µM) of the same compound?
Its viability, T/C is 39.8%.

And the viability, T/C (second compound 0.1 µM, first compound 3.16 µM)?
Its viability, T/C is 28.7%.

And the viability, T/C (second compound 0.1 µM, first compound 10 µM)?
The viability, T/C was 1.28%.

And the viability, T/C [11]?
Its viability, T/C is 25%.

What about the viability, T/C [12] of the same compound?
Its viability, T/C is 27.7%.

What about the viability, T/C (second compound 0.316 µM, first compound 0.316 µM) of the same compound?
Its viability, T/C is 26.9%.

What about the viability, T/C (second compound 0.316 µM, first compound 1 µM) of the same compound?
The viability, T/C was 25.9%.

What about the viability, T/C (second compound 0.316 µM, first compound 3.16 µM) of the same compound?
Its viability, T/C is 32.7%.

And the viability, T/C (second compound 0.316 µM, first compound 10 µM)?
Its viability, T/C is 1.02%.

And the viability, T/C [13]?
The viability, T/C was 26.6%.

And the viability, T/C [14]?
Its viability, T/C is 26.6%.

What about the viability, T/C (second compound 1 µM, first compound 0.316 µM) of the same compound?
Its viability, T/C is 31.8%.

What about the viability, T/C (second compound 1 µM, first compound 1 µM) of the same compound?
The viability, T/C was 33.4%.

What about the viability, T/C (second compound 1 µM, first compound 3.16 µM) of the same compound?
Its viability, T/C is 30.6%.

And the viability, T/C (second compound 1 µM, first compound 10 µM)?
The viability, T/C was 1.41%.

And the viability, T/C [15]?
The viability, T/C was 29.6%.

And the viability, T/C [16]?
The viability, T/C was 26.2%.

And the viability, T/C (second compound 3.16 µM, first compound 0.316 µM)?
Its viability, T/C is 28.6%.

What about the viability, T/C (second compound 3.16 µM, first compound 1 µM) of the same compound?
Its viability, T/C is 28.7%.

What about the viability, T/C (second compound 3.16 µM, first compound 3.16 µM) of the same compound?
Its viability, T/C is 29%.

What about the viability, T/C (second compound 3.16 µM, first compound 10 µM) of the same compound?
The viability, T/C was 0.82%.

And the viability, T/C [17]?
The viability, T/C was 23.9%.

What about the viability, T/C [18] of the same compound?
The viability, T/C was 28.4%.

What about the viability, T/C (second compound 10 µM, first compound 0.316 µM) of the same compound?
Its viability, T/C is 24.6%.

And the viability, T/C (second compound 10 µM, first compound 1 µM)?
The viability, T/C was 21.3%.

And the viability, T/C (second compound 10 µM, first compound 3.16 µM)?
Its viability, T/C is 21.2%.

What about the viability, T/C (second compound 10 µM, first compound 10 µM) of the same compound?
The viability, T/C was 0.69%.

`C[C@@H](NC(=O)c1ncnc(N)c1Cl)c1ncc(C(=O)Nc2cc(C(F)(F)F)c(Cl)cn2)s1` was tested. Which viability, T/C (compound 0.0316 µM) did it give?
The viability, T/C was 97.5% and 79.4%.

And the viability, T/C (compound 0.1 µM)?
Its viability, T/C is 79.2% and 114%.

And the viability, T/C (compound 0.316 µM)?
The viability, T/C was 89.2% and 87.8%.

And the viability, T/C (compound 1 µM)?
Its viability, T/C is 70.5% and 67%.

What about the viability, T/C (compound 3.16 µM) of the same compound?
The viability, T/C was 113% and 64.2%.

And the viability, T/C (compound 10 µM)?
The viability, T/C was 59.5% and 101%.

And the IC50 (curve of compound)?
Its IC50 is greater than 10000 nM.

What does the source list for `CC(C)n1nc(-c2ccc3oc(N)nc3c2)c2c(N)ncnc21` + CC(Nc1ncnc2nc[nH]c12)c1cc2cccc(Cl)c2c(=O)n1-c1ccccc1?
IC50 [1]: 19.7 nM; IC50 [2]: 33.9 nM; IC50 [3]: 15.8 nM; IC50 [4]: 19.5 nM; IC50 [5]: 9.43 nM; IC50 [6]: 10.9 nM; viability, T/C (second compound 0.0316 µM, first compound 0.000316 µM): 74.9%; viability, T/C (second compound 0.0316 µM, first compound 0.001 µM): 107%; viability, T/C (second compound 0.0316 µM, first compound 0.00316 µM): 57.3%; viability, T/C (second compound 0.0316 µM, first compound 0.01 µM): 62.7%; viability, T/C [7]: 44.8%; viability, T/C [8]: 18.1%; viability, T/C (second compound 0.1 µM, first compound 0.000316 µM): 100%; viability, T/C (second compound 0.1 µM, first compound 0.001 µM): 121%; viability, T/C (second compound 0.1 µM, first compound 0.00316 µM): 64%; viability, T/C (second compound 0.1 µM, first compound 0.01 µM): 80%; viability, T/C [9]: 56.7%; viability, T/C [10]: 18.7%; viability, T/C (second compound 0.316 µM, first compound 0.000316 µM): 135%; viability, T/C (second compound 0.316 µM, first compound 0.001 µM): 77.2%; viability, T/C (second compound 0.316 µM, first compound 0.00316 µM): 94.2%; viability, T/C (second compound 0.316 µM, first compound 0.01 µM): 59.9%; viability, T/C [11]: 31.3%; viability, T/C [12]: 27.5%; viability, T/C (second compound 1 µM, first compound 0.000316 µM): 89.4%; viability, T/C (second compound 1 µM, first compound 0.001 µM): 124%; viability, T/C (second compound 1 µM, first compound 0.00316 µM): 74.4%; viability, T/C (second compound 1 µM, first compound 0.01 µM): 66.3%; viability, T/C [13]: 41.9%; viability, T/C [14]: 18.9%; viability, T/C (second compound 3.16 µM, first compound 0.000316 µM): 106%; viability, T/C (second compound 3.16 µM, first compound 0.001 µM): 86.4%; viability, T/C (second compound 3.16 µM, first compound 0.00316 µM): 96%; viability, T/C (second compound 3.16 µM, first compound 0.01 µM): 47.4%; viability, T/C [15]: 44.2%; viability, T/C [16]: 23.8%; viability, T/C (second compound 10 µM, first compound 0.000316 µM): 80%; viability, T/C (second compound 10 µM, first compound 0.001 µM): 68.5%; viability, T/C (second compound 10 µM, first compound 0.00316 µM): 106%; viability, T/C (second compound 10 µM, first compound 0.01 µM): 52.1%; viability, T/C [17]: 30.3%; viability, T/C [18]: 17.8%

With `CC(=O)c1c(C)c2cnc(Nc3ccc(N4CCNCC4)cn3)nc2n(C2CCCC2)c1=O` as the compound, how does the viability, T/C (compound 0.0316 µM) read?
Its viability, T/C is 54.6% [middle of 4 runs].

What about the viability, T/C (compound 0.1 µM) of the same compound?
Its viability, T/C is 39.3% [middle of 4 runs].
